Measurements: patent publication US20250243245A1 (priority 2022, published 2025)
Where a SMILES comes first, the peptide text is derived from it.

Assays:
E. coli strain BL21 = conditions: BL21, 24 h
E. coli BL21 = conditions: BL21, 24 h

| SMILES | MIC (E. coli strain BL21) | IC50 (E. coli BL21) |
| --- | --- | --- |
| CC[C@H](C)[C@H](NC(=O)[C@H](CCCCN)NC(=O)[C@H](CC(C)C)NC(=O)[C@@H](NC(=O)[C@H](CCC(=O)O)NC(=O)[C@H](CCCCN)NC(=O)[C@@H]1CCCN1C(=O)[C@H](CC(C)C)NC(=O)[C@H](CCCCN)NC(=O)[C@@H](N)CCCCN)[C@@H](C)CC)C(=O)N[C@@H](CC(C)C)C(=O)NCC(=O)N[C@@H](CO)C(=O)NCC(=O)N[C@@H](Cc1ccc(O)cc1)C(=O)NCC(=O)N[C@@H](CO)C(=O)N[C@@H](CC(C)C)C(=O)N1CCC[C@H]1C(=O)N[C@@H](CCCCN)C(=O)N[C@@H](CCC(=O)O)C(=O)N[C@H](C(=O)N[C@@H](CC(C)C)C(=O)N[C@@H](CCCCN)C(=O)N[C@H](C(=O)N[C@@H](CC(C)C)C(=O)N[C@@H](CCC(=O)O)C(=O)N[C@@H](CC(C)C)C(=O)N[C@@H](CCCCN)C(=O)N[C@@H](CCCCN)C(=O)O)[C@@H](C)CC)[C@@H](C)CC [Gen-1] (H-KKLPKEILKILGSGYGSLPKEILKILELKK-OH; N-terminus and C-terminus assumed) | 5 to 10 mM | 10.22 ± 0.07 µM |
| CC[C@H](C)[C@H](NC(=O)[C@H](CCCNC(=N)N)NC(=O)[C@H](CCCNC(=N)N)NC(=O)[C@H](CCC(N)=O)NC(=O)[C@H](Cc1c[nH]c2ccccc12)NC(=O)[C@@H](N)Cc1ccccc1)C(=O)N[C@@H](CCCNC(=N)N)C(=O)N[C@@H](CCCNC(=N)N)C(=O)N[C@@H](Cc1c[nH]c2ccccc12)C(=O)N[C@@H](CCCNC(=N)N)C(=O)N[C@@H](CCCNC(=N)N)C(=O)O [Peptide 11P-3, reference compound] (H-FWQRRIRRWRR-OH; N-terminus and C-terminus assumed) | >20 mM | 49 ± 2.79 µM |
| CC[C@H](C)[C@H](NC(=O)[C@H](CCC(=O)O)NC(=O)[C@H](CC(C)C)NC(=O)[C@@H](NC(=O)[C@H](CCCCN)NC(=O)[C@H](CCC(=O)O)NC(=O)[C@@H]1CCCN1C(=O)[C@H](CC(C)C)NC(=O)[C@H](CCCCN)NC(=O)[C@@H](N)CCCCN)[C@@H](C)CC)C(=O)N[C@@H](CC(C)C)C(=O)NCC(=O)N[C@@H](CO)C(=O)NCC(=O)N[C@@H](Cc1ccc(O)cc1)C(=O)N[C@@H](CCCCN)C(=O)N[C@@H](CCCCN)C(=O)N[C@@H](CC(C)C)C(=O)N1CCC[C@H]1C(=O)N[C@@H](Cc1ccccc1)C(=O)N[C@@H](Cc1c[nH]c2ccccc12)C(=O)N[C@@H](CCC(N)=O)C(=O)N[C@@H](CCCNC(=N)N)C(=O)N[C@@H](CCCNC(=N)N)C(=O)N[C@H](C(=O)N[C@@H](CCCNC(=N)N)C(=O)N[C@@H](CCCNC(=N)N)C(=O)N[C@@H](Cc1c[nH]c2ccccc12)C(=O)N[C@@H](CCCNC(=N)N)C(=O)N[C@@H](CCCNC(=N)N)C(=O)O)[C@@H](C)CC [Gen-2] (H-KKLPEKILEILGSGYKKLPFWQRRIRRWRR-OH; N-terminus and C-terminus assumed) | 2.5 to 5 mM | 2.83 ± 0.14 µM |
| CC[C@H](C)[C@H](NC(=O)[C@H](CCCCN)NC(=O)[C@H](CC(C)C)NC(=O)[C@@H](NC(=O)[C@H](CCCCN)NC(=O)[C@H](CCCCN)NC(=O)[C@@H](NC(=O)[C@H](CC(C)C)NC(=O)[C@H](CCCCN)NC(=O)[C@@H](N)CCCCN)[C@@H](C)CC)[C@@H](C)CC)C(=O)N[C@@H](CC(C)C)C(=O)O [Peptide 11P-1, reference compound] (H-KKLIKKILKIL-OH; N-terminus and C-terminus assumed) | 10 to 20 mM | 12.9 ± 0.62 µM |
